According to PubChem BioAssay AID588803 (The Scripps Research Institute Molecular Screening Center, 2011):
Calls of active or inactive are those of the source. No rule for the calls is given here.

Key:
Test in all cases: in-cell serine hydrolase inhibition profile, late-stage follow-up, selectivity assay for PME-1 inhibitor project, ABPP-SILAC, LC-MS/MS, mouse cells (AID 588803)
[1] = target: Palmitoyl-protein thioesterase ABHD10, mitochondrial (Mus musculus) (UniProt Q6PE15); conditions: serine hydrolase ratios, active compounds read low
Chain of Palmitoyl-protein thioesterase ABHD10, mitochondrial (Mus musculus) (Q6PE15 whole entry, looked up): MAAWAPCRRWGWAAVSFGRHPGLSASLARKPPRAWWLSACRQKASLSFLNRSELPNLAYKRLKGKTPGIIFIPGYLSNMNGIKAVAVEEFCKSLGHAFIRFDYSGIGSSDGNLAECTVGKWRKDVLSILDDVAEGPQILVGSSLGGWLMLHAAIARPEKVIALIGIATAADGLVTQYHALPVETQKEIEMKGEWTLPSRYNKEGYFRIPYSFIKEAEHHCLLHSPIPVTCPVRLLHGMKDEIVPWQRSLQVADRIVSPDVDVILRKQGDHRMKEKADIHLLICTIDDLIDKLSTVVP

Pnpla8 = conditions: serine hydrolase ratios, active compounds read low
Pafah1b2 = conditions: serine hydrolase ratios, active compounds read low
Iah1 = conditions: serine hydrolase ratios, active compounds read low
Lyplal1 = conditions: serine hydrolase ratios, active compounds read low
Serhl = conditions: serine hydrolase ratios, active compounds read low
Fasn = conditions: serine hydrolase ratios, active compounds read low
Ctsa = conditions: serine hydrolase ratios, active compounds read low
Ddhd2 = conditions: serine hydrolase ratios, active compounds read low
Pla2g6 = conditions: serine hydrolase ratios, active compounds read low
Nceh1 = conditions: serine hydrolase ratios, active compounds read low
Ppt2 = conditions: serine hydrolase ratios, active compounds read low
Acot2 = conditions: serine hydrolase ratios, active compounds read low
Parl = conditions: serine hydrolase ratios, active compounds read low
Abhd11 = conditions: serine hydrolase ratios, active compounds read low
Abhd12 = conditions: serine hydrolase ratios, active compounds read low
Prcp = conditions: serine hydrolase ratios, active compounds read low
[2] = target: Prolyl endopeptidase (Mus musculus) (UniProt Q9QUR6); conditions: serine hydrolase ratios, Prep, active compounds read low
Chain of Prolyl endopeptidase (Mus musculus) (Q9QUR6 whole entry, looked up): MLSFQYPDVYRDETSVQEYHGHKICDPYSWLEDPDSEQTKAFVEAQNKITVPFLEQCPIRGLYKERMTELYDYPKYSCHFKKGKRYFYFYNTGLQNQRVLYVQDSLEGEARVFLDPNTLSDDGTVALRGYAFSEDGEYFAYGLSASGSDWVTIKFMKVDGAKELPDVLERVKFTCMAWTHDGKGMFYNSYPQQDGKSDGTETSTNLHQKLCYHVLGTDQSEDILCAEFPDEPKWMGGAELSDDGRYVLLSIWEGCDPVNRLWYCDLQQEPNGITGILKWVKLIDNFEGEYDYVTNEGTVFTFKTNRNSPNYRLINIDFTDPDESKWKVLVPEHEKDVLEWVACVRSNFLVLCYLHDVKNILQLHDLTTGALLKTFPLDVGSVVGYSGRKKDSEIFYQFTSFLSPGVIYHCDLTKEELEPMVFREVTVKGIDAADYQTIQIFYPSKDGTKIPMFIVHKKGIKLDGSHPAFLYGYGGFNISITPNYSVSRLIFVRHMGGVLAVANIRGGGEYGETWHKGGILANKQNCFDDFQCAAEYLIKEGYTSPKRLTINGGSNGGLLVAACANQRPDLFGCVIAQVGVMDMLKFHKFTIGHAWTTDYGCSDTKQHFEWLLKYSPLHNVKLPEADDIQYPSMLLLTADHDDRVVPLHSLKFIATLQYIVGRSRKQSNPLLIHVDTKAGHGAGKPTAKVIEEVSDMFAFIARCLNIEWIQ

Acot1 = conditions: serine hydrolase ratios, active compounds read low
Dpp9 = conditions: serine hydrolase ratios, active compounds read low
Acot7 = conditions: serine hydrolase ratios, active compounds read low
Ache = conditions: serine hydrolase ratios, active compounds read low
Faah = conditions: serine hydrolase ratios, active compounds read low
[3] = target: Acyl-protein thioesterase 1 (Mus musculus) (UniProt P97823); conditions: serine hydrolase ratios, Lypla1, active compounds read low
Chain of Acyl-protein thioesterase 1 (Mus musculus) (P97823 whole entry, looked up): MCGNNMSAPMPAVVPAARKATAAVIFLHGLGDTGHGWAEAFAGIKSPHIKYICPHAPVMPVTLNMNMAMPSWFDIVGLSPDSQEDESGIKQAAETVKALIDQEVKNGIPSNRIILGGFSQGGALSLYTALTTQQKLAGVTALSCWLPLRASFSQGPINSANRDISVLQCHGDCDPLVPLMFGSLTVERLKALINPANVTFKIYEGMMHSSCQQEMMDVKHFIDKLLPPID

[4] = target: Monoacylglycerol lipase ABHD6 (Mus musculus) (UniProt Q8R2Y0); conditions: serine hydrolase ratios, active compounds read low
Chain of Monoacylglycerol lipase ABHD6 (Mus musculus) (Q8R2Y0 whole entry, looked up): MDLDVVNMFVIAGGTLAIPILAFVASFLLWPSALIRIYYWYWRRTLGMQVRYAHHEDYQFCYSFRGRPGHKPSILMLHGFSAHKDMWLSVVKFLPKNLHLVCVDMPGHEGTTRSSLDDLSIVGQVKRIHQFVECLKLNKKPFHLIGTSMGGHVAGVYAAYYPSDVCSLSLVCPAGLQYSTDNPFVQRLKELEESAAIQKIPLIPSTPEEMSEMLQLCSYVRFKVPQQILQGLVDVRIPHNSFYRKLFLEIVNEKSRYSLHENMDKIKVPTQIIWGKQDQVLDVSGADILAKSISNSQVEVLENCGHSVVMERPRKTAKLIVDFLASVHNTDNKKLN

Bat5 = conditions: serine hydrolase ratios, active compounds read low
Dpp7 = conditions: serine hydrolase ratios, active compounds read low
Pla2g15 = conditions: serine hydrolase ratios, active compounds read low
Rbbp9 = conditions: serine hydrolase ratios, active compounds read low
Fam108b1 = conditions: serine hydrolase ratios, active compounds read low
Pme1 = conditions: serine hydrolase ratios, active compounds read low
Apeh = conditions: serine hydrolase ratios, active compounds read low
Htra2 = conditions: serine hydrolase ratios, active compounds read low
Acot9 = conditions: serine hydrolase ratios, active compounds read low
Dpp8 = conditions: serine hydrolase ratios, active compounds read low
[5] = target: Platelet-activating factor acetylhydrolase 2, cytoplasmic (Mus musculus) (UniProt Q8VDG7); conditions: serine hydrolase ratios, Pafah2, active compounds read low
Chain of Platelet-activating factor acetylhydrolase 2, cytoplasmic (Mus musculus) (Q8VDG7 whole entry, looked up): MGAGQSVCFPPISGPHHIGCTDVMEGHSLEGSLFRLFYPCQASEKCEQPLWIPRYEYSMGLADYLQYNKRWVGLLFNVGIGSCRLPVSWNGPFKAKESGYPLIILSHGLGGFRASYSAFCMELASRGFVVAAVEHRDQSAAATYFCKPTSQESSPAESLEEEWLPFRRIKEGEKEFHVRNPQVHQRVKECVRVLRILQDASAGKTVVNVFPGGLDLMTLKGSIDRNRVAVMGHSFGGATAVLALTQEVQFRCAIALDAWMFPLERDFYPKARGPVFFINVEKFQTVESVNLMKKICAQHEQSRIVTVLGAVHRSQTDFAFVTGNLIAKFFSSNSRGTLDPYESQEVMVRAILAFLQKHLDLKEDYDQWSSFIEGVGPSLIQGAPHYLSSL

Pafah1b3 = conditions: serine hydrolase ratios, active compounds read low
Pgap1 = conditions: serine hydrolase ratios, active compounds read low
Lypla2 = conditions: serine hydrolase ratios, active compounds read low
Prepl = conditions: serine hydrolase ratios, active compounds read low

Measured: SILAC ratio (probe labeling remaining)

COC(=O)N1C(=O)[C@](c2ccccc2)(C2CCCC2)N1C(=O)OC
active: Pme1 0
inactive: [1] 0.951 | Pnpla8 1.09 | Pafah1b2 0.887 | Iah1 1 | Lyplal1 1.29 | Serhl 1.12 | Fasn 0.971 | Ctsa 0.869 | Ddhd2 1.19 | Pla2g6 0.796 | Nceh1 1.01 | Ppt2 0.812 | Acot2 0.873 | Parl 0.995 | Abhd11 0.946 | Abhd12 1.13 | Prcp 0.717 | [2] 1.01 | Acot1 0.914 | Dpp9 0.937 | Acot7 1.32 | Ache 0.689 | Faah 1.06 | [3] 1 | [4] 0.98 | Bat5 1.06 | Dpp7 0.846 | Pla2g15 1.01 | Rbbp9 1.06 | Fam108b1 1.2 | Apeh 0.821 | Htra2 1.07 | Acot9 0.889 | Dpp8 0.859 | [5] 0.913 | Pafah1b3 0.962 | Pgap1 1.1 | Lypla2 0.927 | Prepl 0.931
